Earlier results as cited in patent US20040063806A1, “Antimicrobial polyalphaolefin composition” (priority 2000, published 2004).
Read-outs that look alike come from different tables or passages of the source.

How the values were obtained:
Pityrosporum ovalae = Pityrosporum ovalae ATCC 14521, medium M
Sarcina lutee = Sarcina lutee NCTC 196, medium BHI-A
Loefferella mallei = Loefferella mallei NCTC 9674, medium NA
Salmonella enteritidis = settings: origin A, medium NA
Candida stellatoidae = settings: origin A, medium SMA
Shigella dysenteriae = Shigella dysenteriae NCTC 2249, medium NA
Aspergillus fumigatus = Aspergillus fumigatus ATCC 9197, medium SMA
Nocardia asteroides = Nocardia asteroides NCTC 6761, medium BHI-A
Micrococcus luteus = Micrococcus luteus ATCC 7468, medium M-H
Corynebacterium xerosis = Corynebacterium xerosis ATCC 373, medium M-H
Keratinomyces ajelloi = settings: origin A, medium SMA
[1] = test system: Staphylococcus epidermidis; settings: Staphylococcus epidermidis ATCC 12228, medium M-H
[2] = test system: Pasteurella pseudotuberculosis; settings: origin C-G, medium NA
Bacillus subtilis = Bacillus subtilis NCTC 8236, medium NA
[3] = test system: Lactobacillus delbrueckii; settings: Lactobacillus delbrueckii ATCC 7830, medium MACA
Staphylococcus hominis = Staphylococcus hominis ATCC 27844, medium M-H
Microsporum canis = Microsporum canis ATCC 10214, medium SMA
Neisseria catarrhalis = Neisseria catarrhalis NCTC 3622, medium BA

Oc1cc(Cl)ccc1Oc1ccc(Cl)cc1Cl [IRGAGUARD B 1000, 2,4,4′-trichloro-2′-hydroxydiphenyl ether]
Microbiostatic effect (Pityrosporum ovalae): >1000 ppm | Microbiostatic effect (Sarcina lutee): 3.0 ppm | Microbiostatic effect (Loefferella mallei): 0.3 ppm | Microbiostatic effect (Salmonella enteritidis): 0.1 ppm | Microbiostatic effect (Candida stellatoidae): 10 ppm | Microbiostatic effect (Shigella dysenteriae): 0.1 ppm | Microbiostatic effect (Aspergillus fumigatus): 10 ppm | Microbiostatic effect (Candida albicans; Candida albicans ATCC 10259, medium M): 3 ppm | Microbiostatic effect (Candida albicans; Candida albicans, origin A, medium SMA): 10 ppm | Microbiostatic effect (Salmonella typhi; Salmonella typhi NCTC 786, medium NA): 0.3 ppm | Microbiostatic effect (Salmonella typhi; Salmonella typhi NCTC 8384, medium NA): 0.3 ppm | Microbiostatic effect (Nocardia asteroides): 3.0 ppm | Microbiostatic effect (Micrococcus luteus): 4.0 ppm | Microbiostatic effect (Corynebacterium xerosis): 5.0 ppm | Microbiostatic effect (Keratinomyces ajelloi): 10 ppm | Microbiostatic effect [1]: <0.125 ppm | Microbiostatic effect [2]: 10.0 ppm | Microbiostatic effect (Bacillus subtilis): 0.1 ppm | Microbiostatic effect [3]: 33.0 ppm | Microbiostatic effect (Staphylococcus hominis): 1.0 ppm | Microbiostatic effect (Microsporum canis): 3 ppm | Microbiostatic effect (Neisseria catarrhalis): 33.0 ppm
